Laboratory results reported in patent publication US20230033849A1, “CBD SUNSCREEN FORMULATIONS AND USES THEREOF” (JUPITER WELLNESS, INC., priority 2021, published 2023).

Columns and labels:
[1] = system: Human primary epidermal keratinocytes (ATCC PCS 200-011); test: MTT cell viability assay of keratinocytes after UVB irradiation; format: cell-based; details: CBD 1 μM, 4 μM and 8 μM for 1 hour before UVB, 10 seconds (approximately 60 mJ/cm^2), cells not treated with CBD 17%
Protocol: (§1) Human primary epidermal melanocytes (ATCC PCS200-013) and keratinocytes (ATCC PCS 200-011) cell-lines were cultured using serum free complete growth media (ATCC PCS 200-030). Cells were cultured at 37 C.° with 5% CO2. Cells were grown to 80% confluence before being washed with PBS buffer (37° C.) and trypsinized with EDTA-trypsin. A small aliquot of cells was stained with Trypan blue and counted using a haemocytometer. The remaining cells were plated in a 24 well plate with 300 uL of complete growth media (ATCC) for UV experimentation. Approximately 27*10^3 cells were added to each well. Twenty-four hours after inoculation, individual wells were treated with one of three different concentrations of CBD isolate (CBD Brands, Jupiter, Fla.) or left untreated (control). The concentrations of CBD used were 1 μM, 4 μM and 8 μM, respectively.
After CBD treatment for 1 hour, all cells were washed and with chilled (4° C.) PBS buffer. […] Exposure times were determined prior to the experiment, empirically, by exposing different wells to increasing UV exposure time and next conducting an MTT assay. […] The chosen exposure time was based on the exposure time that led to greater than 40% cell viability versus untreated cells determined by MTT assay. […] After exposure the effect of CBD on cell viability was evaluated by an MTT assay. […]

[2] = system: Human primary epidermal melanocytes (ATCC PCS200-013); test: MTT cell viability assay of melanocytes after UVB irradiation; format: cell-based; details: Melanocyte, light or radiation study, approximately 60 mJ/cm^2, 0 μM control 16%, read-out: viability after UV irradiation
Protocol: as §1
After CBD treatment for 1 hour, all cells were washed and with chilled (4° C.) PBS buffer. UV exposure experiments were conducted in chilled PBS buffer to avoid heat stress. Cells were irradiated with UVB light (Dermalight 80, UVB lamp). The distance of the lamp to the wells of the plate was kept constant at 3 cm. Exposure times were determined prior to the experiment, empirically, by exposing different wells to increasing UV exposure time and next conducting an MTT assay. […] The chosen exposure time was based on the exposure time that led to greater than 40% cell viability versus untreated cells determined by MTT assay. CBD treated cells were exposed to UV light for this predetermined time of 10 seconds (approximately 60 mJ/cm^2). After exposure the effect of CBD on cell viability was evaluated by an MTT assay. Control cells were cultured in parallel with no CBD treatment, but underwent UVB irradiation.

SMILES: C=C(C)[C@@H]1CCC(C)=C[C@H]1c1c(O)cc(CCCCC)cc1O [CBD, cannabidiol]
- cell viability after irradiation with UVB [1]: dose dependent increase in cell viability
- viability at 1 µM ([2]; 1 μM CBD for 1 hour before UVB): 48%
- viability at 4 µM ([2]; 4 μM CBD for 1 hour before UVB): 65%
- viability at 8 µM ([2]; 8 μM CBD for 1 hour before UVB): 12%
